Key:
Assay type in all cases: cell-based
[1] = system: HTT mRNA canonical junction (CJ); test: Splicing RT-qPCR assay, decrease of HTT canonical junction (CJ) mRNA; details: A673 or K562 cells, 24 hours compound treatment, concentration having 50% response in CJ decrease
Method in brief: (§1)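 A673 (DMEM, 10% FBS) or K562 (IMDM, 10% FBS) cells exposed 24 h at 37 °C to an 11-point 3-fold series, top dose 10 uM final, DMSO ≤0.25%. Lysates assayed by RT-qPCR for HTT CJ and AJ, normalized to GAPDH, GUSB or PPIA and DMSO control via 2^(−ΔΔCt).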

Target C CJ mRNA = test: Gene panel canonical junction qPCR assay, Target C; details: protocol of Example 42, read-out: Target C IC50 (decrease in CJ mRNA levels)
Method in brief: (§2)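 A673 or K562 cells treated 24 h at 37° C with 11-point 3-fold dilutions (top 10 uM, DMSO ≤0.25%). Canonical junction mRNA quantified by RT-qPCR, normalized to GAPDH, GUSB or PPIA and DMSO control (2^(−ΔΔCt)). 4-parameter logistic fit gives IC50 for CJ decrease.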

SMN2 CJ mRNA = test: Gene panel canonical junction qPCR assay, SMN2; details: protocol of Example 42, read-out: SMN2 IC50 (decrease in CJ mRNA levels)
Method in brief: as §2

HTT CJ mRNA = test: Gene panel canonical junction qPCR assay, HTT; details: protocol of Example 42, read-out: HTT IC50 (decrease in CJ mRNA levels)
Method in brief: as §2

[2] = system: HTT mRNA alternative junction (AJ); test: Splicing RT-qPCR assay, increase of HTT alternative junction (AJ) mRNA; details: A673 or K562 cells, 24 hours compound treatment, concentration having 50% response in AJ increase
Method in brief: as §1

Compound	AC50 [1]	IC50 (Target C CJ mRNA)	IC50 (SMN2 CJ mRNA)	IC50 (HTT CJ mRNA)	AC50 [2]
Cc1cn2cc(NC(=O)c3ccc(N4CCNCC4)c4cc(C)oc34)cc(C)c2n1 [Compound 267]	> 10 µM	> 10 µM	< 0.1 µM	> 10 µM	1 to 10 µM
Cc1cc2c(N3CCNCC3)ccc(C(=O)Nc3cn[nH]c3)c2o1 [Compound 268]	> 10 µM	> 10 µM	> 10 µM	> 10 µM	> 10 µM
Cc1cn2cc(NC(=O)c3ccc(N4CCNCC4)c4cn(C)nc34)cc(Cl)c2n1 [Compound 269]	0.1 to 1 µM	1 to 10 µM	< 0.1 µM	0.1 to 1 µM	0.1 to 1 µM
Cn1cc2c(N3CCNCC3)ccc(C(=O)Nc3cn[nH]c3)c2n1 [Compound 270]	> 10 µM	> 10 µM	> 10 µM	> 10 µM	> 10 µM
Cc1cn2cc(NC(=O)c3ccc(C4CC(C)(C)NC(C)(C)C4)c4cc(C)oc34)cc(F)c2n1 [Compound 271, N-[8-fluoro-2-methylimidazo[1,2-a]pyridin-6-yl]-2-methyl-4-(2,2,6,6-tetramethylpiperidin-4-yl)-1-benzofuran-7-carboxamide]	> 10 µM	> 10 µM	0.1 to 1 µM	> 10 µM	> 10 µM
Cc1cn2cc(NC(=O)c3ccc(N4CCC(N5CCCC5)C4)c4cn(C)nc34)cc(F)c2n1 (stereo not shown) [Compound 272]	0.1 to 1 µM	0.1 to 1 µM	< 0.1 µM	0.1 to 1 µM	0.1 to 1 µM
Cc1cn2cc(NC(=O)c3ccc(N4CCNCC4)c4cn(C)nc34)nc2c(C)n1 [Compound 273]	> 10 µM	> 10 µM	< 0.1 µM	> 10 µM	> 10 µM
Cc1cn2cc(NC(=O)c3ccc(N4CC(C)(C)NC(C)(C)C4)c4cn(C)nc34)cc(F)c2n1 [Compound 274]	1 to 10 µM	> 10 µM	< 0.1 µM	1 to 10 µM	> 10 µM
Cc1cn2cc(NC(=O)c3ccc(N4CCNCC4)c4cn(C)nc34)cc(C(F)(F)F)c2n1 [Compound 275]	1 to 10 µM	> 10 µM	< 0.1 µM	1 to 10 µM	1 to 10 µM
Cc1cn2cc(NC(=O)c3ccc(N4CCNC(C)C4)c4cn(C)nc34)cc(Cl)c2n1 (stereo not shown) [Compound 277, N-{8-chloro-2-methylimidazo[1,2-a]pyridine-6-yl}-2-methyl-4-(3-methylpiperazin-1-yl)indazole-7-carboxamide]	0.1 to 1 µM	1 to 10 µM	< 0.1 µM	0.1 to 1 µM	0.1 to 1 µM
Cc1cn2cc(NC(=O)c3ccc(N4CCC(N(C)C)C4)c4cn(C)nc34)cc(Cl)c2n1 (stereo not shown) [Compound 278, N-{8-chloro-2-methylimidazo[1,2-a]pyridin-6-yl}-4-[3-(dimethylamino)pyrrolidin-1-yl]-2-methylindazole-7-carboxamide]	1 to 10 µM	1 to 10 µM	< 0.1 µM	1 to 10 µM	1 to 10 µM
Cc1cn2cc(NC(=O)c3ccc(N4C[C@H]5CC[C@@H](C4)N5)c4cn(C)nc34)cc(Cl)c2n1 [Compound 279, N-{8-chloro-2-methylimidazo[1,2-a]pyridin-6-yl}-4-[(1R,5S)-3,8-diazabicyclo[3.2.1]octan-3-yl]-2-methylindazole-7-carboxamide]	1 to 10 µM	> 10 µM	< 0.1 µM	1 to 10 µM	1 to 10 µM
Cc1cn2cc(-c3ccc(C(=O)NC4CCNCC4)c4nn(C)cc34)cc(F)c2n1 [Compound 280, 4-{8-fluoro-2-methylimidazo[1,2-a]pyridin-6-yl}-2-methyl-N-(piperidin-4-yl)indazole-7-carboxamide]	1 to 10 µM	> 10 µM	1 to 10 µM	1 to 10 µM	1 to 10 µM
Cc1cn2nc(-c3ccc(C(=O)NC4CCNCC4)c4nn(C)cc34)cc(C)c2n1 [Compound 281, 4-{2,8-dimethylimidazo[1,2-b]pyridazin-6-yl}-2-methyl-N-(piperidin-4-yl)indazole-7-carboxamide]	1 to 10 µM	1 to 10 µM	0.1 to 1 µM	1 to 10 µM	1 to 10 µM

— US20230365566A1, “HETEROCYCLIC AMIDES AND THEIR USE FOR MODULATING SPLICING” (REMIX THERAPEUTICS INC., priority 2020, published 2023)
